# Laboratory results published in patent US20110044991A1, “METHODS AND COMPOSITIONS FOR TREATING LYMPHOMA AND MYELOMA” (IRM LLC, priority 2006, published 2011).
# Tests used:
# Cdkn2a−/− lymphoma cells = assay: Luciferase assay of luciferased lymphoma cells on stromal layer; format: cell-based, mouse; conditions: for Response rate to cyclopamine treatment (responsive/tested cultures) / Response rate to cyclopamine treatment: Ink4a/Arf-/- lymphomas; for Response rate to cyclopamine treatment: >80% growth inhibition at 5 μM
# Experimental: For Shh pathway inhibition on stroma, 6200 stroma cells were seeded per 96-well. After 24 hours 20,000 luciferased lymphoma cells were seeded on the stroma cells and 2 hours later compound or DMSO was added. Luciferase assay was performed with Bright-glow reagent as described. To generate cells overexpressing Hh pathway members, lymphoma cells were infected with Smo, Smo 535, Smo 562, Gli1 and Fused-pMSCV IRES GFP constructs and then sorted for GFP positive cells.
# In order to investigate whether the Hh signalling pathway does indeed contribute to the survival and proliferation of lymphoma cells growing on an intact stromal layer, lymphoma cells were luciferased using a retrovirus expressing a puromycin/Luc fusion cassette. 2×10E4 lymphoma cells constitutively expressing luciferase were added to each 96-well containing a stromal layer (not expressing luciferase) isolated from Cdkn2a^−/− mice. A total of 34 individual Eμ-Myc-lymphomas and 8 Cdkn2a-lymphomas were tested. A luciferase assay was performed as a readout for cell viability and proliferation and results were also documented by light microscopy.
# Gli1, Ptch1, Bcl2 = assay: Hh target expression in lymphoma cells (Western blot, quantitative RT-PCR); format: cell-based, mouse
# Experimental: Western immunoblot: Whole-cell lysates were sonicated in 2% SDS/50 mM TrisHCl, pH8. Western blot using rabbit or goat polyclonal antibodies for Shh-N, c-Myc, Smo, Gli1 were performed as described. Shh-N, c-Myc and Smo antibodies were obtained from Santa Cruz Biotechnology, Gli1 (ab7523) antibody was obtained from Abcam Inc. (Cambridge, Mass.).
# RT-PCR: Total cellular RNA was treated with DNase, reverse transcribed, amplified for 33 cycles at an annealing temperature of 55° C. Primers used were obtained from Integrated DNA Technologies (Coralville, Iowa).
# To further substantiate a role for Hh/SMO signalling in Eμ-Myc and CDKN2a^−/− positive lymphoma we determined the expression of Hh pathway members in the lymphoma cells itself. Transcripts of all essential Hh pathway members (Smo, Ptc1, Ptc2, Gli1, and Gli2) were expressed in B-cell lymphomas, plasmoblastomas and plasmacytomas (FIG. 2E). Gli1 and Ptch represent direct target genes of the Hh pathway itself and are regulated at the transcriptional level by Hh signalling. […] Ptch1 transcript levels were decreased 10-fold within 18 h of pathway inhibition (FIG. 2G). Other target genes of the Hh pathway like Hip and Cyclin D1 could also be detected in the majority of lymphoma cells. […] All 3 Gli proteins have evolved specialized functions with distinct temporal and tissue-specific expression patterns. Unlike Gli1, which represents a direct transcriptional Hh-target gene, Gli2 and also Gli3 are considered latent transcriptional regulators activated by Hh signalling through modification of their N-terminal repressor domain.
smiles,measurement,setting,value
CC1=C2C[C@H]3[C@@H](CC=C4C[C@@H](O)CC[C@@]43C)[C@@H]2CC[C@]12O[C@@H]1C[C@H](C)CN[C@H]1[C@H]2C [cyclopamine],Response rate to cyclopamine treatment (responsive/tested cultures),Cdkn2a−/− lymphoma cells; plasmacytoma,(2/4)
same,Response rate to cyclopamine treatment,Cdkn2a−/− lymphoma cells; plasmacytoma,50%
same,Response rate to cyclopamine treatment (responsive/tested cultures),Cdkn2a−/− lymphoma cells; plasmoblastoma,(2/4)
same,Response rate to cyclopamine treatment,Cdkn2a−/− lymphoma cells; plasmoblastoma,50%
same,lymphomas sensitive to Hh pathway inhibition,"Cdkn2a−/− lymphoma cells; all lymphomas from CDKN2a−/− mice, sensitivity = greater than 80% growth inhibition at 5 μM",50%
same,Bcl2 in Myc-lymphomas,"Gli1, Ptch1, Bcl2; after cyclopamine treatment, Western blot",downregulated
same,decrease of Ptch1 transcript levels,"Gli1, Ptch1, Bcl2; within 18 h of pathway inhibition, 5 μM",10 fold
same,Gli1 protein in lymphoma cells,"Gli1, Ptch1, Bcl2; within 24 hours, compared to actin control",reduction of detectable Gli1 protein
